Source: a melting point compilation (Tetko et al.; mined from patent text by program, amines drawn as free bases though some values may be those of a salt)

Row | Structure (SMILES) | melting point [°C]
1 | COC(=O)C1(CC#N)C(=O)N(Cc2ccc(Br)cc2F)C(=O)c2ccccc21 (stereo unspecified) | 108 to 110
2 | CCOC(=O)C1=C(C)Nc2nc(N3CCOCC3)nc(N3CCOCC3)c2C1c1cccc2nonc12 (stereo unspecified) | 234
3 | CCCCOC(=O)[C@H]1CN(c2ccc3c(c2)oc(=O)n3CC)C(=O)O1 | 155 to 157
4 | C=C1CCC2C3CCc4cc(OC(C)=O)ccc4C3CCC12C (stereo unspecified) | 77 to 79
5 | Cc1nc2cc(C(F)(F)F)c(Cl)c(N)c2n1N(C)C | 173 to 174
6 | CC(=O)Oc1ccc(-c2cnc(NC(=O)Cc3ccccc3)c(Cc3ccccc3)n2)cc1 | 228 to 231
7 | CCOc1ccccc1-c1ccc2cnc(Nc3ccc(N4CCN(C)CC4)cc3)nn12 | 164 to 165
8 | Cc1cc([N+](=O)[O-])c(NC(C)C(=O)N(C)OS(C)(=O)=O)c([N+](=O)[O-])c1 (stereo unspecified) | 145
9 | Cc1cc(Cn2[nH]c(N)cc2=O)ccc1Cl | 131
10 | CCCCCCCCCCC1CN(O)C(=O)N1C (stereo unspecified) | 47 to 48
11 | CCOC(=O)C(=NOC1CCCCO1)c1csc(NC(c2ccccc2)(c2ccccc2)c2ccccc2)n1 (stereo unspecified) | 184
12 | C[C@H](CO)Nc1nc(SCc2cccc(F)c2F)nc2[nH]c(=O)cnc12 | 215 to 217
13 | CN(C)C1(c2ccccc2)CCC(NC2c3ccccc3-c3ccccc32)CC1 (stereo unspecified) | 202 to 205
14 | CCn1c(CCO)nc(C(C)C)c1Sc1cc(Cl)cc(Cl)c1 | 80 to 81
15 | O=C(Nc1ccc(F)c(C(F)(F)F)c1)N1COc2cc(Oc3cc(Cl)ncn3)ccc21 | 188 to 191
16 | CCC(CC)C(=O)N1CC(NC(=O)Nc2cccc(C(=O)O)c2)C(=O)N(CC(=O)c2ccccc2C)c2cc(C)ccc21 (stereo unspecified) | 244 to 246
17 | CCCCCCCCCCCCCCCCCCOc1cc(OCCOCCOCCOCC)cc(C(=O)O)c1 | 38 to 40
18 | CCCc1c2c(c(O)c3c(=O)cc(C(=O)O)oc13)C(O)CCC2 (stereo unspecified) | 245 to 249
19 | CN(C)c1ccc(S(=O)c2ccccc2)cc1[N+](=O)[O-] (stereo unspecified) | 125 to 126
20 | CCOC(=O)C(Oc1ccccc1)c1ccccc1 (stereo unspecified) | 45
21 | O=S1(=O)NCN(C2CCCCCC2)c2ccc(Cl)cc21 | 216 to 218
22 | CCOC(=O)Cc1cnc(N)s1 | 101
23 | Cc1nc(NC(=O)c2ccccc2)sc1C(=O)NCc1ccc(F)cc1 | 206 to 208

Row | Structure (SMILES) | melting point [°C]
24 | COC(=O)CCC(C)C(=O)N[C@@H](C)C(=O)OCc1ccccc1 (stereo partly specified) | 97 to 99
25 | COc1ccc(-c2c(Cl)c(Cn3cncn3)nc3sc4c(c23)CCSC4)cc1 | 198 to 200
26 | O=C(NCCN1CCC(Oc2ccc(F)cc2Cl)CC1)c1ccc(-n2cccn2)nc1 | 109 to 110
27 | Nc1nc(Cc2cccs2)no1 | 132 to 133
28 | COc1cc(C)c(C=C2COCC(=Cc3cc(C)c(OC)cc3C)C2=O)cc1C | 182 to 184
29 | CN(C)C(C)(O)CC12CCC(c3ccccc31)c1ccccc12 (stereo unspecified) | 118 to 121
30 | CC1(C)CC(=O)c2ccc(C#Cc3cccnc3)nc2C1 | 108 to 109
31 | COc1cc2c(cc1OC)C(=O)C(CN1CCC3(CC1)C(=O)NCN3c1ccccc1)C2 (stereo unspecified) | 174 to 177
32 | Clc1cc(Oc2cc(Cl)nc(-c3ccc(Cl)s3)n2)ccn1 | 154 to 156
33 | OC(c1ccccc1)(c1ccccc1)c1ccncc1 | 238 to 240
34 | CC[C@H](C)[C@H](NC(=O)OC(C)(C)C)C(=O)N[C@H](C(=O)N[C@@H](Cc1ccc2ccccc2c1)[C@@H](O)[C@@H](O)CC(C)C)[C@@H](C)CC | 168 to 169
35 | CSc1cnc(OCCOc2ncnc(NS(=O)(=O)c3ccc(C(C)(C)C)cc3)c2-c2ccc(C(=O)O)cc2)nc1 | 226 to 227
36 | COc1ccc(C(CN(C)C)c2nnc3n2-c2ccc(Cl)cc2C(c2ccccc2)=NC3)cc1 (stereo unspecified) | 138 to 142
37 | COCc1nc2c(N)nc3cc(CCCNS(C)(=O)=O)ccc3c2n1CC(C)(C)O | 205 to 207
38 | C=CCOC(=O)c1ccc(OC(=O)C2CC3=C(C2)C(C)(C)CCC3(C)C)cc1 | 48 to 50
39 | O=C(O)Cc1ccc(C2CCCC(=O)C2)cc1 (stereo unspecified) | 96
40 | CCN(CC)C(=O)CCc1ccc(N)c([N+](=O)[O-])c1 | 98 to 99
41 | O=C(C=Cc1ccccc1)N1CCc2c([nH]c3ccccc23)C12CCC(c1cccc(F)c1)(N1CCC1)CC2 (stereo unspecified) | 120 to 126
42 | COc1ccc(-c2ccc(C=O)c3ccccc23)cc1F | 137 to 138
43 | Cn1nc2c(N)nc3c(c2c1CCC1CCCCC1)CCCC3 | 230 to 231
44 | Cc1cccc(C2(O)CCN(c3ccc(O)nn3)CC2)c1 | 265
45 | CC(C)(C)NC(=O)NC(Cc1ccccc1)C(O)C(O)C(Cc1ccccc1)NC(=O)NC(C)(C)C (stereo unspecified) | 193 to 196
46 | CCOC(=NC(=O)c1cccc2ccccc12)c1ccc(Br)cc1 | 104 to 105

Next, values leading:

Row | melting point [°C] | Structure (SMILES)
47 | 211 | CC(C)(C)c1cc(C(C(=O)O)c2cc(C(C)(C)C)c(O)c(C(C)(C)C)c2)cc(C(C)(C)C)c1O
48 | 173 to 174 | CCN(CC)C(=O)c1nc[nH]n1
49 | 121 to 122 | O=C1NC(=O)C(Cc2ccc(OCCc3cccc4ccccc34)cc2)S1 (stereo unspecified)
50 | 230 to 232 | Cc1cc(C)c2c(c1)CC2=NNC(N)=S
51 | 166 | COc1ccc(-c2cc(=O)c3c(O)cc(OCC4=COC(C)(C)O4)cc3o2)cc1OC
52 | 178 to 180 | Cc1cc2c(-c3cccc(-c4noc(=S)[nH]4)c3)c(CC(=O)Nc3ccc(F)cc3C(F)(F)F)c(=O)oc2cc1Cl
53 | 163 to 165 | CC(C)C[C@@H](NS(=O)(=O)c1ccc(N2CCC(c3ccccc3)CC2)cc1)C(=O)O
54 | 143 to 145 | C=CCc1ccc(C(NC(C)=O)C(=O)OC)cc1O (stereo unspecified)
55 | 122 to 123 | CCN(CC)CCCNC(=O)c1ccc(S(N)(=O)=O)cc1
56 | 187 | Cc1c(NC(=O)c2ccc(CC(=O)c3ccccc3)cc2)ccc2cc(CN3CCCC3)cnc12
57 | 110 to 111 | COC(=O)Cc1cc(N=O)c2[nH]ccc2c1
58 | 156 to 158 | Cc1ccc(S(=O)(=O)ON=C(c2cccc([N+](=O)[O-])c2)n2nc(C)cc2N)cc1
59 | 130 | O=C(NCCCl)NCC1(Cc2ccccc2)CC(=O)C(OCc2ccccc2)=CN1 (stereo unspecified)
60 | 86 to 88 | COc1cc(N2CCN(CCC3CN(C)C(=O)O3)CC2)cc(OC)c1OC (stereo unspecified)
61 | 113 | CSc1nc(-c2ccc(C(F)(F)F)cc2)c2cc(C)sc2n1
62 | 163 to 167 | COc1ccc(N2CCc3c(C)nc4c(OC)cccc4c32)c(C)c1
63 | 59 | C#CCn1c(C(F)(F)F)cc2ccccc21
64 | 176 to 178 | COc1nc(C)nc(NC(=O)NS(=O)(=O)c2cccnc2Oc2ccccc2)n1
65 | 94 to 95 | O=Cc1ccccc1Oc1ccc(F)cc1[N+](=O)[O-]
66 | 148 to 149 | CSc1ccccc1C(=O)Nc1ccccc1
67 | 136 to 138 | C/C(C=O)=C\COc1cccc(O)c1
68 | 229 to 242 | CSc1ccc2nc(N)c(C(N)=O)cc2c1
69 | 58 to 59 | COc1ccc2c(-c3ccccc3)csc2c1
70 | 42 to 43 | Cc1cccc(N)c1C=C(Br)Br
71 | 165 to 166 | CCc1cccc2c1nc(-c1c(F)cccc1F)n2Cc1c(F)cccc1F
